Reference: paper PMC3365588 (Structure(London, England:1993), 2009)

What was measured:
RNH activity of HIV-1 = conditions: read-out: IC50, inhibition of RNH activity; previously reported; cited from earlier work
HIV-1 RT [1] = target: T1, HIV-1 RT (Human immunodeficiency virus type 1 group M subtype B, UniProt P03366); assay: Direct binding assay using surface plasmon resonance; conditions: for Kd: KD^SPR
HIV-1 integrase = assay: Inhibition of HIV-1 integrase; format: biochemical; conditions: data not shown
[2] = system: RNase H cleavage by HIV-1 RT; conditions: cited from earlier work
[3] = system: HIV-1 RT with benzoyl-L-phenylalanine in place of Tyr501; conditions: cited from earlier work
HIV-1 RT [4] = target: T1, HIV-1 RT; assay: Direct binding assay using intrinsic protein fluorescence; conditions: KD^fluor
E. coli RNase H = conditions: cited from earlier work
[5] = Enzyme + MgCl2, free enzyme (no substrate)

Row | SMILES | IC50 (RNH activity of HIV-1) | IC50 (HIV-1 RT [1]) | Kd (HIV-1 RT [1]; [5]) | Kd (HIV-1 RT [1]; Enzyme, no metal (MgCl2 omitted, EDTA added)) | Fold difference of IC50, RNH of HIV-1 RT vs HIV-1 integrase (HIV-1 integrase) | Inhibition of polymerase-independent secondary cuts in the RNA strand [2] | Inhibition of RNase H cleavage with pre-formed Enzyme·Substrate complex ([2]; pre-steady state conditions, ref Bielhartz et al) | Inhibition of polymerase dependent cleavage ([2]; ref Bielhartz et al) | Effect of substituting benzoyl-L-phenylalanine for Tyr501 on inhibition [3] | Kd (HIV-1 RT [4]; Enzyme + MgCl2 + ds RNA (non-hydrolyzable substrate analog)) | Kd (HIV-1 RT [4]; [5]) | Fold difference of IC50, RNH of HIV-1 RT vs E. coli RNase H (E. coli RNase H)
1 | CC(C)c1ccccc(=O)c1O [α-thujaplicin] | 50 µM | – | – | – | – | – | – | – | – | – | – | –
2 | CC(C)c1ccc(O)c(=O)c(O)c1 [β-thujaplicinol, 2,7-dihydroxy-4-(propan-2-yl)-cyclohepta-2,4,6-trien-1-one] | 0.21 µM | > 100 µM | 6 ± 1 µM | > 100 µM | over 10 fold | inhibits polymerase-independent “secondary cuts” | unable to inhibit RNase H cleavage | not an inhibitor of polymerase dependent cleavage | conferred resistance to inhibition | 0.185 ± 0.008 µM | 1 µM | ~300 fold
